How the values were obtained:
[1] = molecular target: T1, AaOR10/Orco (Ae. aegypti OR10 with A. bakeri Orco) (Aedes aegypti, UniProt Q177X3); assay: whole-cell voltage clamp, HEK293T cells; type: cell-based; details: agonist
T1 construct: gene GPRor10; co-expressed in HEK293 cells; with Odorant receptor coreceptor (Apocrypta bakeri)
T1 sequence (Q177X3 1-375): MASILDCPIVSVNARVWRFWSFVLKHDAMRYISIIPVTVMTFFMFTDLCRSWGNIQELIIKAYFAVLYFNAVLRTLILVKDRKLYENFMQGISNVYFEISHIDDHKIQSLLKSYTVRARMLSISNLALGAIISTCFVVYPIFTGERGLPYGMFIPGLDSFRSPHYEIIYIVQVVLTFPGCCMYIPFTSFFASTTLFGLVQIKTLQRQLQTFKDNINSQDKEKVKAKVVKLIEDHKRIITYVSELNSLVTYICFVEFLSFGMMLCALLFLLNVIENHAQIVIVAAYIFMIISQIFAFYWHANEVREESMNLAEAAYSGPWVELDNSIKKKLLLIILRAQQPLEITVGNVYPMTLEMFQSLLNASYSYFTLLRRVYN
T1 sequence (B0FAQ4 1-474 partner): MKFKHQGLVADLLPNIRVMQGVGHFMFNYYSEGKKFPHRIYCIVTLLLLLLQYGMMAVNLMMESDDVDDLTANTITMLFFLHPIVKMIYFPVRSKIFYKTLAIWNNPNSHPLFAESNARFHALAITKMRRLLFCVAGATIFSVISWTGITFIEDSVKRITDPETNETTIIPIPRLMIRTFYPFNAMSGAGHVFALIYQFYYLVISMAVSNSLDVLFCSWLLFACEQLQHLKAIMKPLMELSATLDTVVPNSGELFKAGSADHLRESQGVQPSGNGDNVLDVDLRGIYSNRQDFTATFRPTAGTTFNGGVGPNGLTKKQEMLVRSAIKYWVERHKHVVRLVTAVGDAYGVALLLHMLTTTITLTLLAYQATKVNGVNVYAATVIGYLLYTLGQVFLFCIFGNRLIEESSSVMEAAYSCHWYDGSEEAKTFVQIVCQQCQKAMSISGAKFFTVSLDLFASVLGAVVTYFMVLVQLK
Description: whole-cell voltage clamp, HEK293T cells on AaOR10/Orco (Ae. aegypti OR10 with A. bakeri Orco) | whole-cell currents of AaOR10/Orco are indistinguishable in EC50 and overall dose-response parameters | measure their response to indole and o-cresol, canonical odorants known to activate AaOR10 heteromers

[2] = molecular target: T2, AaOR10 in complex with the Orco from Ae. aegypti (Aedes aegypti, UniProt Q177X3); assay: whole-cell voltage clamp, HEK293T cells; type: cell-based; details: agonist
T2 construct: gene GPRor10; both subunits from Ae. aegypti, co-expressed in HEK293T cells; stoichiometry not determined; with Odorant receptor coreceptor
T2 sequence (Q177X3 1-375): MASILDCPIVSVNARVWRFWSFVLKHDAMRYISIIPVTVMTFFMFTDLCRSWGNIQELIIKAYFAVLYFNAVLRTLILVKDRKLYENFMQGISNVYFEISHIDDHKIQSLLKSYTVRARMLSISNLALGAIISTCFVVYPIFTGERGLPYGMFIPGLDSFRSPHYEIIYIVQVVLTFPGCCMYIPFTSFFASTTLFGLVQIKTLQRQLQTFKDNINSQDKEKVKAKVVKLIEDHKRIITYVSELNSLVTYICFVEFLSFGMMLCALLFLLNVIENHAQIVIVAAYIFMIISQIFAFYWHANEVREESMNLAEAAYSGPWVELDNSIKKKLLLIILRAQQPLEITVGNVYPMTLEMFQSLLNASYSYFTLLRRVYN
T2 sequence (Q178U6 1-478 partner): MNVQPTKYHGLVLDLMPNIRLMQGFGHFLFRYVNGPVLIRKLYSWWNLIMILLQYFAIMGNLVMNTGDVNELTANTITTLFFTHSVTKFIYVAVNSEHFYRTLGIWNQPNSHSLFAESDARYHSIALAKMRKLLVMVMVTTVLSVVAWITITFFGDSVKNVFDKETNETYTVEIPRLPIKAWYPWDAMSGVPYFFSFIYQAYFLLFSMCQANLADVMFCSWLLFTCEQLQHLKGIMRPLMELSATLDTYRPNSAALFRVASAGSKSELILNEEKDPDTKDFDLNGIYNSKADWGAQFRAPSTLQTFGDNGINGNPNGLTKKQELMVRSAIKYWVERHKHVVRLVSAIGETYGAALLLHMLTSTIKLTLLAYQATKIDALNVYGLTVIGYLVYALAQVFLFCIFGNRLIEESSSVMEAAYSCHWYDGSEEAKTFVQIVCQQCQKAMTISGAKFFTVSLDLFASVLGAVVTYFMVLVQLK
Description: whole-cell voltage clamp, HEK293T cells on AaOR10 in complex with the Orco from Ae. aegypti | those obtained with AaOR10 in complex with the Orco from Ae. aegypti | AaOR10 with either A. bakeri (black) or Ae. aegypti Orco (gold)

[3] = molecular target: T1, AaOR10/Orco (Ae. aegypti OR10 with A. bakeri Orco); assay: cryo-EM structure of complex; type: binding; details: 2.9 Å; one site, in the OR10 subunit (S2, S3, S4, S6)
[4] = molecular target: Anopheles gambiae odorant receptor OR28 (Anopheles gambiae); assay: cryo-EM structure; AgOR28 co-expressed with A. bakeri Orco, purified complex; unbound and 2,4,5-trimethylthiazole (TMT)-bound states
[5] = molecular target: Aedes aegypti odorant receptor OR10 (Aedes aegypti); assay: cryo-EM structure; AaOR10/Orco heteromers co-expressed in HEK293 cells (1:1 OR to Orco virus), purified by an affinity tag on the OR subunit, in detergent micelle; unbound and o-cresol-bound states
[6] = far from saturation at high concentration, limiting goodness of fit

## Cc1ccccc1O [o-cresol]
[1]; [6]
  EC50: 13.3 µM
[2]; [6]
  EC50: 11.3 µM
[3]
  cryo-EM structure of complex: determined the cryo-EM structure of the AaOR10/Orco complex bound to o-cresol

## c1ccc2[nH]ccc2c1 [indole]
[1]; Hill coefficient about one
  EC50: 1.09 µM
[2]
  EC50: 1.51 µM

B1: Apocrypta bakeri odorant receptor co-receptor Orco (receptor)
chain: MKFKHQGLVADLLPNIRVMQGVGHFMFNYYSEGKKFPHRIYCIVTLLLLLLQYGMMAVNLMMESDDVDDLTANTITMLFFLHPIVKMIYFPVRSKIFYKTLAIWNNPNSHPLFAESNARFHALAITKMRRLLFCVAGATIFSVISWTGITFIEDSVKRITDPETNETTIIPIPRLMIRTFYPFNAMSGAGHVFALIYQFYYLVISMAVSNSLDVLFCSWLLFACEQLQHLKAIMKPLMELSATLDTVVPNSGELFKAGSADHLRESQGVQPSGNGDNVLDVDLRGIYSNRQDFTATFRPTAGTTFNGGVGPNGLTKKQEMLVRSAIKYWVERHKHVVRLVTAVGDAYGVALLLHMLTTTITLTLLAYQATKVNGVNVYAATVIGYLLYTLGQVFLFCIFGNRLIEESSSVMEAAYSCHWYDGSEEAKTFVQIVCQQCQKAMSISGAKFFTVSLDLFASVLGAVVTYFMVLVQLK
[4]
  stoichiometry N (Orco subunits per OR subunit): 3
[5]
  stoichiometry N (Orco subunits per OR subunit): 3
